This note sets out measurements from paper doi:10.1101/713214v1 (biorxiv, 2019).

By IC50 is commonly meant the concentration that inhibits the measured activity by half. Low readings indicate greater potency in that assay, high ones weaker potency in that assay.

Molecules are shown by their SMILES.

Common to all, as to format: biochemical
The target in one assay is MtbClpP1P2 (Mycobacterium tuberculosis, UniProt P9WPC5). In words: fluorogenic peptidase assay, Z-Gly-Gly-Leu-AMC.
The target in the next assay is T1, SaClpP (Staphylococcus aureus, UniProt Q2G036).
T1 sequence (Q2G036 1-195): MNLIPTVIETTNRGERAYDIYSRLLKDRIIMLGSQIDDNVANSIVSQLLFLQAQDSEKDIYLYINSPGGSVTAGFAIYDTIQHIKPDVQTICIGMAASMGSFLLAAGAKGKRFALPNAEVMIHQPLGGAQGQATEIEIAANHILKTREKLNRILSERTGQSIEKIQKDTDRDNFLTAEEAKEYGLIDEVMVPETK
In words: fluorogenic peptidase assay, Suc-LY-AMC.

A further assay deals with hClpP (Homo sapiens, UniProt Q16740). In words: fluorogenic peptidase assay, Suc-LY-AMC.
Chain of hClpP (Q16740 58-277): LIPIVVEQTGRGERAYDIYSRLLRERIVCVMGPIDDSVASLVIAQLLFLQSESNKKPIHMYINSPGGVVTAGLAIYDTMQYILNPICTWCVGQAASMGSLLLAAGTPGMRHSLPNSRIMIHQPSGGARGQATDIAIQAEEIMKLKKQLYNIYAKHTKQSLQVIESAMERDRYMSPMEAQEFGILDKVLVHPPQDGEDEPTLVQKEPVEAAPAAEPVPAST
The next assay has as its target EcClpP (Escherichia coli, UniProt P0A6G7). In words: fluorogenic peptidase assay, Suc-LY-AMC.
Another assay deals with PaClpP1 (Pseudomonas aeruginosa, UniProt Q9I2U1). In words: fluorogenic peptidase assay, Suc-LY-AMC.
Chain of PaClpP1 (Q9I2U1 whole entry): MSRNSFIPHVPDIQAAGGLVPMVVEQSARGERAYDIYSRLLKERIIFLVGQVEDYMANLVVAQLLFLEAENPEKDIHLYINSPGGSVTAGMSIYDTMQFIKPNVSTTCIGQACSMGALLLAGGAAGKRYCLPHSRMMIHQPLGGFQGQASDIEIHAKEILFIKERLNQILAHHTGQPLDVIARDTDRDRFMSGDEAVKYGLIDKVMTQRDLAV

Chain of MtbClpP1P2 (P9WPC5 whole entry, looked up): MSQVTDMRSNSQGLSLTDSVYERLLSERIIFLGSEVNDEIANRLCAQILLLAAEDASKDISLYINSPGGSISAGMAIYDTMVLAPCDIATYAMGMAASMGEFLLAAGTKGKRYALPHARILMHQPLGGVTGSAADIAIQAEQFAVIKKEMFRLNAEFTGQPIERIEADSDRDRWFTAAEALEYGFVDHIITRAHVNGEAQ
Chain of EcClpP (P0A6G7 15-207): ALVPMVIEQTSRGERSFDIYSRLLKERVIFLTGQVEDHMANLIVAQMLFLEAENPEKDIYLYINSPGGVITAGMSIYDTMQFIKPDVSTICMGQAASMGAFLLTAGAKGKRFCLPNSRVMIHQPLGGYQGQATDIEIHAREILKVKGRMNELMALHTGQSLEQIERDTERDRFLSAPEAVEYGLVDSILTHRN

`Cc1cc2c(F)c(Oc3ncnn4cc(OC[C@@H](C)O)c(C)c34)ccc2[nH]1` [brivanib] returned a 50% inhibitory concentration (IC50) on MtbClpP1P2 of 12.5 µM.

In the case of `COc1cc2c(Oc3ccc4[nH]c(C)cc4c3F)ncnc2cc1OCCCN1CCCC1` [cediranib], the IC50 against SaClpP was above 100 µM; against hClpP, 36.6 ± 0.5 µM; against EcClpP it was above 100 µM; against PaClpP1 it was above 100 µM; at MtbClpP1P2, 3.4 ± 0.7 µM.
